“Also recorded” adds a separate entry of the source.
Columns and labels:
[1] = system: melanoma cell lines; details: previous results, read-out: concentration showing inhibition of 50% of the population; cited from earlier work
[2] = system: mouse embryonic fibroblasts MEF; assay: FACS uptake of BODIPY FL conjugates (Example 4); assay type: cell-based; details: 200 nM, 5 min, S enantiomer vs R
Protocol: FIG. 4B: Conjugate compounds coupled to BODIPY FL were tested for uptake using 200 nM each conjugate and 5 minute incubation with mouse embryonic fibroblasts MEF. Mean fluorescent intensities (MFI). 1,000 cells were sorted by FACS.
Fibroblasts are ubiquitous mesenchymal cells that are thought to play important roles in wound repair and healing, and serve as reservoirs of multipotent progenitors capable of repopulating depleted cell compartments. Primary mouse embryonic fibroblast (MEF) cultures consist of highly heterogeneous populations of distinct cell types. Singhal, P. K., et al., 2016. MEF cells have a limited growth capacity and on prolonged passaging spontaneously immortalize at a low frequency. In contrast to transformation of primary MEF cells that requires the presence of two cooperating oncogenes, immortalised MEF cells can be transformed by a single oncogene (Ras) resulting in a loss of contact inhibition, anchorage-independent growth, and tumour formation in nude mice. Studies of MEF cells have played an important role in the elucidation of the molecular mechanisms underlying cellular immortalization, transformation, and tumorigenesis. Additionally, utilization of MEF cells disrupted for specific genes has provided a powerful tool to analyse the genetic regulation of these cellular processes. Sun and Taneja, 2007. […]

[3] = system: NZM011, NZM009, NZM012, NZM022 and NZM077 cells; assay: Flow cytometry uptake into metastatic melanoma lines (Example 11); assay type: cell-based, human; details: 200 nM, 30 minutes, five cell lines
Protocol: FIG. 11: Uptake for compounds 124, 126, and 132 at 200 nM and 30 minute incubation with melanoma cell lines: NZM12 (NZM012) (BRAF V600E mutant metastatic melanoma, homozygous deletion CDKN2A and low invasive cell line), NZM77 (NZM077) (BRAF V600E mutant metastatic melanoma and missense NF1), NZM22 (NZM022) (BRAF G466A mutant metastatic melanoma, P53 241S/T mutant, NF1 non-frameshift insertion and PTEN epigenetic silencing). NZM9 (NZM009) (P53 179C/T mutant and homozygous silencing CDKN2A). NZM11 (NZM011) (BRAF V600E mutant metastatic melanoma and homozygous deletion CDKN2A), as positive control. Mean fluorescent intensities (MFI). 1,500-2,000 cells were obtained. Bars represent mean±SD. Results are from a single experiment done in triplicate. Cells were analysed by FACS.
Methods: For screening, NZM011, NZM009, NZM012, NZM022 and NZM077 cells were suspended at 250 cells per μL in MEMα media and 200 μL was dispensed into 96 well plates. The cells were left to settle for 24 hours for NZM011, NZM012 and NZM077 and 48 hours for NZM009 and NZM022 at 37 °C, 5% O2, 5% CO2. Before addition to the cells, 10 μL of 10 mM stock solutions in DMSO of compounds 124, 126, and 132 were diluted with 1% FBS MEMα media to give a 200 nM solution.
After the appropriate settle time, the media was removed from the 96 well plates and 200 μL of 200 nM conjugate solutions and DMSO control were dispensed to each well (in triplicate) and incubated for 30 minutes at 37 °C, 5% O2, 5% CO2. After 30 minutes, the media was removed and cells washed with PBS. Next, 100 μL of TrypLE trypsin (ThermoFisher Scientific) was added to each well and incubated for 5 minutes at 37 °C. After this, 150 μL of MEMα media (plus 1% FBS for NZM011, NZM012 and NZM077; plus 5% FBS for NZM009 and NZM022) were added. Cells were analysed by flow cytometry using a FACS biosort and FITC filter. Flow cytometry results represent the mean of the fluorescence intensities (in arbitrary units) measured for cells sorted in every sample.

[4] = system: Jurkat cells; assay: Flow cytometry time course of uptake (Example 12); assay type: cell-based, human; details: 200 nM
Protocol: FIG. 12: Time course of uptake for compounds 124, 126, and 132 at 200 nM after 5, 30 or 60 minute incubation with Jurkat cells. Mean fluorescent intensities (MFI). 1,000 cells were sorted by FACS. Bars represent mean±SD. Results represents a single experiment done in triplicate.
Materials and methods: For this study, 7.7×10^5 Jurkat cells were centrifuged for 5 minutes at 2500 RPM. The supernatant was removed and the cells were diluted in RPMI media (supplemented with 1% FBS+1% penicillin-streptomycin) to 400 cells/μL. Next, 28 μL of 100 μM stock solutions from compound 124, 126, or 132 were diluted with 6972 μL of RPMI media (supplemented with 1% FBS+1% penicillin-streptomycin) to give a 400 nM solution. Following this, 250 μL of conjugate solutions (giving a 200 nM final concentration) and 250 μL of cell suspensions were then added to each well in a 96 well plate. In addition, 250 μL of media only was added to the DMSO control wells. Incubation was carried out for 5, 30 and 60 minutes at 37 °C in triplicate wells for each compound and time point.
After incubation, cells were centrifuged for 1.5 minutes at 5000 RCF. Supernatant was removed and the cell pellet re-suspended in 200 μL fresh RPMI media, transferred to 96 well-plate and each cell suspension analysed by flow cytometry. Flow cytometry results represent the mean of the fluorescence intensities (in arbitrary units) measured for cells sorted in every sample.

[5] = system: NZM11 melanoma cancer cell line; assay: FACS uptake of BODIPY FL conjugates, 50 nM, 5 min (Example 1); assay type: cell-based, human
Protocol: FIG. 1. Conjugate compounds coupled to BODIPY FL were tested for uptake using 50 nM each conjugate and 5 minute incubation with HEM (human epidermal melanocytes) and melanoma cell line NZM11 (BRAF V600E mutant metastatic melanoma). Mean fluorescent intensities (MFI). For these tests, n=300-500, mean±SD. Results were from a single experiment done in triplicate. Cells were sorted by FACS.
Materials and methods: NZM11 is an adherent metastatic melanoma cell derived from a patient with a subcutaneous lesion on their mid back. This human metastatic melanoma is identified with code CBA-1398 from Cell bank Australia. […] Cells of NZM11 diluted in MEMα media and cells of HEMnDP (primary melanocyte cell line) diluted in media 254 were left to settle in 96-wells microplate for 48 hours. 10 μL of 10 mM stock solutions in DMSO from 138 and pantothenic acid/pantothenic acid derivatives coupled to BODIPY were diluted with HBSS to afford 100 nM solution. Then, 100 nM compounds and DMSO solutions were diluted 1:1 with MEMα media for NZM11 and media 254 for HEMnDP to afford 50 nM solutions. After the 48 hour settle time, media was removed from the cells and 200 μL of 50 nM media solutions were poured to each well and incubated for 5 minutes at 37 °C. […] The FACS results output represented the mean of the fluorescence intensities (in arbitrary units) measured for cells sorted in every sample

[6] = system: glioblastoma cells; assay: Protein content after 48 hour incubation (Example 9); assay type: cell-based, human; details: 5, 25 and 100 μM
Protocol: FIGS. 10A-10B: Protein content of glioblastoma cells after 48 hour incubation with compound 138 or PA at 5, 25 and 100 μM final concentration. To indicates protein levels at the beginning of the test. Control indicates protein levels in cells which were incubated for 48 hours without exposure to 138 or PA.
(§1) Glioblastoma cells were used to determine viability and growth by measurement of protein levels. Protein content of glioblastoma cells was determined after 48 hour incubation with compound 138 or PA at 5, 25 and 100 μM final concentration. For To, protein levels were determined at the start of the test (before addition of test compounds). For the control, protein levels were determined for cells incubated for 48 hours in the absence of the test compounds. Astrocytes were used as a non-cancer cell line control. U87: this cell line has epithelial morphology that was isolated from malignant gliomas from a patient, likely with glioblastoma. SF188: this glioblastoma cell line was derived from the left temporal lobe tumour of a patient. U251: this cell line expresses epidermal growth factor receptor (EGFR) receptors, for inhibition studies. LN229: This cell line has a mutation on TP53; Simple; p.Pro98Leu. LN18: This cell line is negative for glial fibrillary acidic proteins and S100 (S-100) protein. […] GUVW cells were also utilised.

[7] = system: NZM11 (BRAF V600E mutant metastatic melanoma) cells; assay: Sulforhodamine B (SRB) assay of viability / proliferation, auranofin conjugates (Example 8); assay type: cell-based, human; details: 200 μM, 48 hours
Protocol: FIG. 8: Effect of 136 and 137 (auranofin conjugates) on viability of NZM11 melanoma cells. Cells were incubated with 136 and 137 at 10 μM final concentration and kept at 37 °C for 48 hours. Pantothenic acid (PA), CJ-15,801, and biotin were tested at 200 μM final concentration. […] Two batches of auranofin were tested at 10 μM final concentration.
FIG. 9: The viability data from FIG. 8 was normalised to the treatment plate and DMSO control and plotted as a percentage of cell growth. Individual data points represent technical replicates. Curve indicates non-linear regression slope, which allows determination of IC50 values.
Materials and methods: NZM11 cells were cultured in MEMα media with an initial count of 1020 cells/μL. The cells were then diluted to get 25 cells per μL and 200 μL of this suspension (5000 cells per well), dispensed into 96 well plates and left to settle for 24 hours. 10 mM stock solutions of 136, 137, and auranofin were diluted with 1% FBS MEMα media to give 10 nM, 30 nM, 100 nM, 300 nM, 1 μM, 3 μM, 10 μM, 30 μM and 100 μM solutions. After 24 hours the media was removed from the 96 well plates. To individual wells 200 μL of each dilution were dispensed in triplicate for three groups (136, 137, and auranofin): 1% FBS MEMα media only (DMSO control), 10 nM, 30 nM, 100 nM, 300 nM, 1 μM, 3 μM, 10 μM, 30 μM and 100 μM. The cells were incubated at 37 °C, 5% 02 and 5% CO2 for 48 hours.
In order to test the potency of 136 and 137, the IC50 values were calculated for these auranofin conjugates. For analysis of the treatment plate (Tz) a SRB assay was utilised. For this assay, 50 μL of 50% (w/v) ice-cold trichloroacetic acid (TCA) was added to each well. To achieve this, 5 g of TCA was made up to 10 mL with milliQ H2O. This was cooled on ice. Incubation was carried out for 1 hour at 4 °C to fix cells. TCA and media were removed from cells. Five milliQ washes were carried out and the plate was left to air dry. Next, 50 μL of 0.4% SRB solution (prepared in 1% acetic acid) was added to each well and incubated for 10 minutes at room temperature. The SRB solution was removed and five milliQ washes were carried out. Then, 100 μL of 10 mM Tris solution was added to each well, and the dye was solubilised. Absorbance at 515 nm was read on plate reader. Data was normalized to Tz plate, as per NCI60 screening method (https://dtp.cancer.gov/discovery_development/nci-60/methodology.htm).

[8] = system: astrocytes; assay: Protein content after 48 hour incubation (Example 9); assay type: cell-based, human; details: 5, 25 and 100 μM
Protocol: as §1

Compound: CC[P](CC)(CC)=[Au][S][C@@H]1O[C@H](COC(C)=O)[C@@H](OC(C)=O)[C@H](OC(C)=O)[C@H]1OC(C)=O [auranofin]
- IC50 [1]: ≤ 500 nM

Compound: CC1=CC(C)=[N+]2C1=Cc1ccc(CCCn3cc(CCNC(=O)/C=C/NC(=O)[C@@H](O)C(C)(C)CO)nn3)n1[B-]2(F)F [Compound 126, (E)-N-((((3-[4,4-Difluoro-5,7-dimethyl-4-bora-3a,4a-diaza-s-indacene-3-yl]propyl)-1H-1,2,3-triazol-4-yl)ethylamino)-3-oxoprop-1-enyl)-2,4-dihydroxy-3,3-dimethylbutanamide]
- lower intensities than the R derivatives [2]: around 50%
- times less uptake than 124 [3]: 5-12 times
- time of highest uptake [4]: 60 min
- times lower than 124 uptake ([4]; 60 minutes): 4 times
- uptake increase compared to DMSO control ([4]; 60 minutes): three times higher
- mean intensity compared to the 124 conjugate [5]: 25%

Compound: CC(C)(CO)[C@@H](O)C(=O)N/C=C/C(=O)O [Compound 138, (R,E)-3-(2,4-Dihydroxy-3,3-dimethylbutanamido)acrylic acid]
- protein content / protein levels [6]: little to no effect on protein levels
- viability / cell proliferation [7]: little to no effect on cell proliferation
- protein content / protein levels [8]: little to no effect on protein levels

Compound: CC(C)(CO)[C@@H](O)C(=O)NCCC(=O)O [pantothenic acid]
- protein content / protein levels [6]: comparable content of proteins with the control; also recorded: little to no effect on protein levels
- protein content / protein levels [8]: comparable content of proteins with the control; also recorded: little to no effect on protein levels

— patent publication US20260364186A1, “Chemical Conjugates, Compositions, and Methods of Preparation and Use Thereof” (Transfection Holdings Limited, priority 2022, published 2026)
